{
  "source": "patent US7001756B1",
  "about": "“Microorganism strain of GM-020 of Lactobacillus rhamnosus and its use for treating obesity” (GenMont Biotech Inc., priority 2004, dated 2006)",
  "key": {"[1]": {"assay": "Obesity model: serum concentration of fat metabolites", "format": "in vivo, ICR mice", "conditions": "4 weeks treatment, GM-020 10^9 CFU/mL or PPA 4.875 mg each time, twice a day", "description": "(§1) Food and water were supplemented sufficiently. The mice were divided into two groups. […] The mice's body weights were measured every week.\n(§2) The treatments were administrated twice a day.\nSerum concentration of fat metabolites: Blood samples were collected from the tails for biochemical assay. The blood samples were stayed at room temperature for 1 hour and centrifuged at 2,500 rpm for 10 minutes. The upper layer of serum was taken for assay.\nThe concentration of triacylglycol (TG) of each group was assayed with TRI[…] LIQUID REAGENT™ (ASK®, Taiwan) and the absorption was measured with Autoanalyzer Hitachi™ 7150. The concentration of total cholesterol (CHOL) was assayed with C[…] REAGENT™ (ASK®, Taiwan), and the absorption was measured with Autoanalyzer Hitachi™ 7150."}, "[2]": {"assay": "Liver and kidney function assays (serum GOT, GPT, creatinine, uric acid)", "conditions": "4 weeks treatment, GM-020 10^9 CFU/mL or PPA 4.875 mg each time, twice a day", "description": "Animal model: Male ICR mice were purchased from National Laboratory Animal Center in Taiwan and raised alone in light for 12 hours and in dark for 12 hours at a temperature of 25±1° C. and a humidity of 60±5%. Food and water were supplemented sufficiently. The mice were divided into two groups. One was normal control group and the other was high energy group. The normal control group was fed with normal diet, and the high energy group was fed with high energy diet containing 48% dry feeding stuff, 8% corn oil and 44% condensed milk. The mice's body weights were measured every week. The high energy group was further divided into groups as listed below according treatment: (a) 1× of wood ear, (b) 1× of wood ear combined with GM-020, (c) GM-020, (d) 10× of wood ear, (e) 10× of wood ear combined with GM-020, (f) negative control treated with normal saline, and (g) positive control treated with PPA.\nTreatment with GM-020 and/or wood ear: The normal control group was fed with normal diet continuously. The treatments were administrated twice a day. The dosage of PPA was 4.875 mg each time. In the meal of 1× of wood ear, there was 15.6 mg of wood ear in 3 g diet, and in the meal of 10× of wood ear, there is 156 mg of wood ear in 3 g diet. The dosage of GM-020 was 10^9 CFU/mL.\nLiver and kidney function assays: The blood samples were treated as described above.\nFor each sample, the concentration of creatinine was assayed according to Jaffe Reaction method (Unichem®, Japan) and the absorption was measured with Autoanalyzer Hitachi™ 7150. The concentration of GOT was assayed with GOT (ASAT) IFCC mod™. (HUMAN®, Germany) and the absorption was measured with Autoanalyzer Hitachi™ 7150. The concentration of GPT was assayed with GPT (ALAT) IFCC mod™. (HUMAN®, Germany) and the absorption was measured with Autoanalyzer Hitachi™ 7150. The concentration of uric acid (UA) was assayed according to uricase-peroxidase method (Unichem®, Japan) and the absorption was measured with Autoanalyzer Hitachi™ 7150.\nThe data were analyzed with Kruskal Wallis H Test, and that of the normal control group was taken as a baseline for Dunnett Test."}, "[3]": {"assay": "Obesity model: liver concentration of fat metabolites", "format": "in vivo, ICR mice", "conditions": "right lobe of liver; 4 weeks treatment; GM-020 10^9 CFU/mL or PPA 4.875 mg each time, twice a day", "description": "as §1, §2\nLiver concentration of fat metabolites: The mice were sacrificed, and the right lobe of liver was taken. The fat was extract according to the conventional method.\nFor each sample, the concentration of triacylglycol (TG) and total cholesterol (CHOL) were assayed as mentioned above."}, "[4]": {"assay": "Obesity model: lipid tissue weight around the testicle and the kidney", "format": "in vivo, ICR mice", "conditions": "after 4 weeks treatment; GM-020 10^9 CFU/mL or PPA 4.875 mg each time, twice a day", "description": "as §1, §2\nDifferences of lipid tissue weight around the testicle: The mice were sacrificed, and the lipid tissues around the testicle were taken and weighted.\nDifferences of lipid tissue weight around the kidney: The mice were sacrificed, and the lipid tissues around the kidney were taken and weighted."}, "[5]": {"assay": "Obesity model: body weight of ICR mice on high energy diet", "format": "in vivo", "conditions": "GM-020 10^9 CFU/mL or PPA 4.875 mg each time, twice a day", "description": "as §1, §2\nBody weight difference: After treated for 4 weeks, blood samples were collected from the tails for biochemical assay."}},
  "data": [
    {"molecule": "CC(N)C(O)c1ccccc1", "note": "(centres unmarked) [Positive Control, phenylpropanolamine]", "values": [
      {"measurement": "CHOL (serum concentration of total cholesterol)", "setting": "[1]", "result": "219.08 ± 11.22"},
      {"measurement": "HDL (serum concentration of HDL-C)", "setting": "[1]", "result": "123.19 ± 4.20"},
      {"measurement": "LDL (serum concentration of LDL-C)", "setting": "[1]", "result": "10.04 ± 0.93"},
      {"measurement": "TG (serum concentration of triacylglycol)", "setting": "[1]", "result": "75.83 ± 9.93"},
      {"measurement": "Creatinine", "setting": "[2]", "result": "0.56 ± 0.03"},
      {"measurement": "GOT", "setting": "[2]", "result": "117.50 ± 12.95"},
      {"measurement": "GPT", "setting": "[2]", "result": "47.00 ± 6.17"},
      {"measurement": "UA (uric acid)", "setting": "[2]", "result": "2.42 ± 0.50"},
      {"measurement": "CHOL (liver concentration of total cholesterol)", "setting": "[3]", "result": "26.75 ± 1.48"},
      {"measurement": "TG (liver concentration of triacylglycol)", "setting": "[3]", "result": "103.58 ± 11.41"},
      {"measurement": "lipid tissue weight around the kidney compared with the negative control group", "setting": "[4]", "result": "little difference"},
      {"measurement": "lipid tissue weight around the testicle compared with the negative control group", "setting": "[4]", "result": "significant decrease"},
      {"measurement": "body weight compared with the negative control group", "setting": "[5]; after 2 weeks", "result": "significant decrease"},
      {"measurement": "body weight compared with the negative control group", "setting": "[5]; after 3 weeks", "result": "significant decrease"}
    ]}
  ]
}
